Data: patent publication US20060079566A1, “PDK-1/Akt signaling inhibitors” (priority 2003, published 2006)

How the values were obtained:
M14 = test: NCI DTP screen (SRB), Melanoma; type: cell-based; details: Homo sapiens
Procedure: (§1) Screening of compounds 70 and 71 against several cancer cell lines The human tumor cell lines of the cancer screening panel are grown in RPMI 1640 medium containing 5% fetal bovine serum and 2 mM L-glutamine. For a typical screening experiment, cells are inoculated into 96 well microtiter plates in 100 μL at plating densities ranging from 5,000 to 40,000 cells/well depending on the doubling time of individual cell lines. After cell inoculation, the microtiter plates are incubated at 37° C., 5% CO2, 95% air and 100% relative humidity for 24 h prior to addition of experimental drugs.
(§2) After 24 h, two plates of each cell line are fixed in situ with TCA, to represent a measurement of the cell population for each cell line at the time of drug addition (Tz). Experimental drugs are solubilized in dimethyl sulfoxide at 400-fold the desired final maximum test concentration and stored frozen prior to use. At the time of drug addition, an aliquot of frozen concentrate is thawed and diluted to twice the desired final maximum test concentration with complete medium containing 50 μg/ml gentamicin. Additional four, 10-fold or ½ log serial dilutions are made to provide a total of five drug concentrations plus control. Aliquots of 100 μl of these different drug dilutions are added to the appropriate microtiter wells already containing 100 μl of medium, resulting in the required final drug concentrations.
(§3) Following drug addition, the plates are incubated for an additional 48 h at 37° C., 5% CO2, 95% air, and 100% relative humidity. For adherent cells, the assay is terminated by the addition of cold TCA. Cells are fixed in situ by the gentle addition of 50 μl of cold 50% (w/v) TCA (final concentration, 10% TCA) and incubated for 60 minutes at 4° C. The supernatant is discarded, and the plates are washed five times with tap water and air dried. Sulforhodamine B (SRB) solution (100 μl) at 0.4% (w/v) in 1% acetic acid is added to each well, and plates are incubated for 10 minutes at room temperature. After staining, unbound dye is removed by washing five times with 1% acetic acid and the plates are air dried. Bound stain is subsequently solubilized with 10 mM trizma base, and the absorbance is read on an automated plate reader at a wavelength of 515 nm. For suspension cells, the methodology is the same except that the assay is terminated by fixing settled cells at the bottom of the wells by gently adding 50 μl of 80% TCA (final concentration, 16% TCA). Using the seven absorbance measurements [time zero, (Tz), control growth, (C), and test growth in the presence of drug at the five concentration levels (Ti)], the percentage growth is calculated at each of the drug concentrations levels. Percentage growth inhibition is calculated as: [(Ti−Tz)/(C−Tz)]×100 for concentrations for which Ti>/=Tz [(Ti−Tz)/Tz]×100 for concentrations for which Ti<Tz
(§4) Three dose response parameters are calculated for each experimental agent. […] The drug concentration resulting in total growth inhibition (TGI) is calculated from Ti=Tz. […] Values are calculated for each of these three parameters if the level of activity is reached; however, if the effect is not reached or is exceeded, the value for that parameter is expressed as greater or less than the maximum or minimum concentration tested.

LOX IMVI = test: NCI DTP screen (SRB), Melanoma; type: cell-based; details: Homo sapiens, LOX IMVI
Procedure: as §1, §2, §3, §4

SK-MEL-5 = test: NCI DTP screen (SRB), Melanoma; type: cell-based; details: Homo sapiens
Procedure: as §1, §2, §3, §4

SK-MEL-28 = test: NCI DTP screen (SRB), Melanoma; type: cell-based; details: Homo sapiens
Procedure: as §1, §2, §3, §4

SK-MEL-2 = test: NCI DTP screen (SRB), Melanoma; type: cell-based
Procedure: as §1, §2, §3, §4

PC-3 cells = test: Cell viability analysis (MTT) in PC-3 cells; type: cell-based, human; details: Homo sapiens; inducing apoptotic death in PC-3 cells / PC-3 cell viability; read-out: IC50 PC-3
How it was run: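 Viability of PC-3 (p53−/−) prostate cancer cells measured by MTT in six replicates after 24 h growth in 10% FBS medium. Compounds (DMSO ≦0.1% final) applied in 1% serum RPMI 1640 for varying times; 0.5 mg/ml MTT for 2 h at 37° C., formazan dissolved in DMSO, absorbance read at 570 nm.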

RXP 393 = test: NCI DTP screen (SRB), Renal Cancer; type: cell-based, human
Procedure: as §1, §2, §3, §4

UO-31 = test: NCI DTP screen (SRB), Renal Cancer; type: cell-based, human; details: Homo sapiens, UO-31
Procedure: as §1, §2, §3, §4

NCI-H23 = test: NCI DTP screen (SRB), Non-Small Cell Lung Cancer; type: cell-based; details: Homo sapiens
Procedure: as §1, §2, §3, §4

EKVX = test: NCI DTP screen (SRB), Non-Small Cell Lung Cancer; type: cell-based; details: Homo sapiens
Procedure: as §1, §2, §3, §4

A549/ATCC = test: NCI DTP screen (SRB), Non-Small Cell Lung Cancer; type: cell-based; details: Homo sapiens
Procedure: as §1, §2, §3, §4

PC-3 = test: NCI DTP screen (SRB), Prostate Cancer; type: cell-based; details: Homo sapiens
Procedure: as §1, §2
(§5) Following drug addition, the plates are incubated for an additional 48 h at 37° C., 5% CO2, 95% air, and 100% relative humidity. For adherent cells, the assay is terminated by the addition of cold TCA. Cells are fixed in situ by the gentle addition of 50 μl of cold 50% (w/v) TCA (final concentration, 10% TCA) and incubated for 60 minutes at 4° C. […] Bound stain is subsequently solubilized with 10 mM trizma base, and the absorbance is read on an automated plate reader at a wavelength of 515 nm. […] Using the seven absorbance measurements [time zero, (Tz), control growth, (C), and test growth in the presence of drug at the five concentration levels (Ti)], the percentage growth is calculated at each of the drug concentrations levels. Percentage growth inhibition is calculated as: [(Ti−Tz)/(C−Tz)]×100 for concentrations for which Ti>/=Tz [(Ti−Tz)/Tz]×100 for concentrations for which Ti<Tz
as §4

DU-145 = test: NCI DTP screen (SRB), Prostate Cancer; type: cell-based; details: Homo sapiens
Procedure: as §1, §2, §5, §4

CCRF-CEM = test: NCI DTP screen (SRB), Leukemia; type: cell-based; details: Homo sapiens
Procedure: After 24 h, two plates of each cell line are fixed in situ with TCA, to represent a measurement of the cell population for each cell line at the time of drug addition (Tz). Experimental drugs are solubilized in dimethyl sulfoxide at 400-fold the desired final maximum test concentration and stored frozen prior to use. […]
Following drug addition, the plates are incubated for an additional 48 h at 37° C., 5% CO2, 95% air, and 100% relative humidity. […] Bound stain is subsequently solubilized with 10 mM trizma base, and the absorbance is read on an automated plate reader at a wavelength of 515 nm. […] Using the seven absorbance measurements [time zero, (Tz), control growth, (C), and test growth in the presence of drug at the five concentration levels (Ti)], the percentage growth is calculated at each of the drug concentrations levels. Percentage growth inhibition is calculated as: [(Ti−Tz)/(C−Tz)]×100 for concentrations for which Ti>/=Tz [(Ti−Tz)/Tz]×100 for concentrations for which Ti<Tz […]

SF-268 = test: NCI DTP screen (SRB), CNS Cancer; type: cell-based
Procedure: as §1, §2, §3, §4

Question: Which results are given for `NCC(=O)Nc1ccc(-n2nc(C(F)(F)F)cc2-c2ccc3c(ccc4ccccc43)c2)cc1` [Compound 70, 2-Amino-N-{4-[5-(2-phenanthrenyl)-3-(trifluoromethyl)-1H-pyrazol-1-yl]-phenyl}-acetamide]?
Answer: GI50 (M14; M14): 2100 nM; CC50 (M14; M14, read-out: LC50): > 100000 nM; GI50 (LOX IMVI): 836 nM; GI50 (SK-MEL-5): 1360 nM; GI50 (SK-MEL-28; SK-MEL-28): 1220 nM; CC50 (SK-MEL-28; SK-MEL-28, read-out: LC50): 5690 nM; GI50 (SK-MEL-2; Homo sapiens, SK-MEL-2): 2330 nM; CC50 (SK-MEL-2; Homo sapiens, SK-MEL-2, read-out: LC50): > 100000 nM; Percent Growth (SK-MEL-2; SK-MEL-2, Log10 Concentration −5.0): −67%; IC50 (PC-3 cells): 5000 nM; GI50 (RXP 393; Homo sapiens): 1140 nM; Percent Growth (RXP 393; Log10 Concentration −4.0): 10%; Mean Optical Densities (RXP 393; Log10 Concentration −7.0): 0.700; Mean Optical Densities (RXP 393; Log10 Concentration −8.0): 0.766; GI50 (UO-31): 1370 nM; GI50 (NCI-H23; NCI-H23): 1300 nM; CC50 (NCI-H23; NCI-H23, read-out: LC50): 6330 nM; GI50 (EKVX): 1490 nM; GI50 (A549/ATCC): 1020 nM; GI50 (PC-3; PC-3): 705 nM; CC50 (PC-3; PC-3, read-out: LC50): 6020 nM; GI50 (DU-145; DU-145): 1730 nM; CC50 (DU-145; DU-145, read-out: LC50): 6950 nM; GI50 (CCRF-CEM): 387 nM; CC50 (CCRF-CEM; read-out: LC50): > 100000 nM; GI50 (SF-268; Homo sapiens, SF-268): 1110 nM; CC50 (SF-268; Homo sapiens, SF-268, read-out: LC50): > 100000 nM; Percent Growth (SF-268; SF-268, Log10 Concentration −4.0): −26%
